According to PMC7156724, “Potent BRD4 inhibitor suppresses cancer cell-macrophage interaction” (Nature Communications, 2020):
“And” between values parts separate entries of the source, which are not always exact repeats. Equal values may be shown once.

Columns and labels:
[1] = tested on: NCI-H211 small cell lung cancer (SCLC) cells; assay: AlamarBlue assay, NCI-H211; format: cell-based; details: for Cellular activity in SCLCs (H211), alamarBlue: Fig.1e, replicates
Method: (§1) 3. AlamarBlue assay. AlamarBlue was made by resazurin sodium salt (Sigma, Cat
(§2) # 199303) dissolved in PBS.
(§3) NCI-H211, MDA-MB231 and A375 cells were plated in 96-well plates at approximately 30% confluence and left overnight to adhere. In the following day, […]
(§4) of treatment, 10 μl AlamarBlue reagent (0.3 mg/ml) was added to each well, and after 18h, the florescence intensity in each well was measured using a top-reading fluorescent plate reader with excitation at 530 nm and emission at 590 nm. […]

[2] = tested on: MDA-MB231 triple negative breast cancer (TNBC) cells; assay: AlamarBlue assay, MDA-MB231; format: cell-based, human; details: for Cellular activity in TNBCs (MDA-MB231), alamarBlue: Fig.1f, replicates
Method: as §1, §2, §3, §4

[3] = Body weight change of H526 SCLC tumor bearing mice; details: for Mouse body weight changes (%) from Day 0: 3mg/kg, QDx21D, 3 mg/kg
A375 human melanoma = A375 human melanoma xenograft tumor growth; format: in vivo, mouse; details: Fig.3e, Group 5, 1 mg/kg PO QD, 5 Days on, 2 Days off / week x3, individual animals
Excerpt: PO, oral administration; QD, once daily; BID, twice daily. b–d Tumor growth curves for A2780 ovarian tumor (n = 5) (b), TMD8 large B cell lymphoma (n = 6) (c), and B16F10 melanoma (n = 5) (d) bearing mice treated with the indicated compounds once daily for 11-21 days. e, f Tumor growth curves for A375 melanoma (n = 6) (e), and patient-derived xenograft (PDX) of melanoma (n = 5) (f) bearing mice treated with the indicated compounds once daily (5 days on, 2 days off) for 21 days. For d–f, NHWD-870 used is NHWD-870-HCl synthesized using Suzuki coupling route. Data are presented as mean ± SEM in (a, b, d, f) and mean + SEM in (c, e). p values were calculated using two-tailed, unpaired t tests. *p < 0.05; **p < 0.01; ***p < 0.001. Source data are provided as a Source Data file.
4–6 weeks old female BALB/c nude mice were used for most experiments, with the exception of 6–8 weeks old female C57BL/6 mice were used for B16F10 experiments, and 6–8 weeks old male BALB/c nude mice and SD rats were used for pharmacokinetic experiments. All animals were purchased from Shanghai SIPPR-Bk Lab Animal Co., Ltd. All animals were housed under a regimen of 12 h light/12 h dark cycles and specific pathogen-free conditions. 5×10^6 NCI-H526, ES-2, MDA-MB231, A2780, A375, B16F10, and TMD-8 cells (0.1 ml) were injected subcutaneously into female nude mice. The melanoma patient-derived xenograft model was derived from a human melanoma sample (BRAF, NARS and NF1 wild type, and p53 mutant) removed from a patient in Xiangya Hospital. Surgically removed tumor fragments were implanted subcutaneously into female NSG mice. When the tumors grew to ~1000 mm^3, they were harvested and cryopreserved or immediately re-implanted for expansion or experiments. Mouse body weight and tumor sizes were measured every 3 days. Once the tumors grew to 150–200 mm^3, mice were treated with the compounds as described in the Figures. 1 × 10^6 A2780 cells (1 ml) were injected into the abdominal cavity of nude mice. Ascitic volume and tumor weight were measured by an electronic balance. All the procedures were evaluated and approved by the Institutional Animal Care and Use Committee of Central South University and Yale University. […]
We apologize for not clearly labeling the experiments using compounds synthesized using Suzuki coupling method. In the revised manuscript, we modified the text to clearly mark the animal models in Fig 3d-f were tested using NHWD-870 synthesized using Suzuki […]
compared the activity of NHWD-870 synthesized using Stille coupling route with the NHWD-870 synthesized from Suzuki coupling route (Reviewer Figure 1). […]
activity and possible toxicity were identical.
Reviewer Figure 1 NHWD-870 synthesized through Stille or Suzuki route has similar properties in vivo. Tumor bearing mice were treated with 2mg/kg of the indicated compounds, orally administrated once daily for 21 days. Shown are tumor growth curves (a) and body weight change (b) for A375 melanoma bearing mice. […]
986158 in terms of potency, but apart from with the A375 melanocyte cell line, the advance seems relatively moderate. With such similar compounds, the pharmacokinetic properties and ability to accumulate at the desired site is often more important. Figure S6d (prev. Fig. 3d) in the previous

H526 tumors = assay: Immunofluorescent staining of cleaved caspase 3 and Ki67 in H526 tumors; format: in vivo, mouse; details: treated H526 tumors, independent images
Method: Immunofluorescence staining of tumor sections was performed according to the manufacturer’s instructions. Slides were imaged using a Zeiss Axiovert 200 fluorescence microscope (Carl Zeiss MicroImaging; Thornwood, NY), and images were captured using Openlab3 software (Imprecision, Lexington, MA). Cleaved caspase 3, Ki67, CSF1, and CD68 positive cells were counted with ImageJ version 1.52s[58].
Supplementary Figure 10. NHWD-870 increased tumor apoptosis and inhibite d tumor proliferation.
(a,b) Immunofluorescent staining of cleaved caspase 3 (apoptotic cells, red) and E-Cadherin (cancer cells, […]
green) in vehicle, NHWD-870 or BMS-986158 treated H526 tumors from Figure 4a. Shown are […]
representative images of cleaved caspase 3 positive cells (a) and quantification of cleaved caspase 3 positive […]
cells (b). Scale bar is 30 μm. Data are presented as mean ± SEM from 6 independent images. p values were […]
calculated using two-tailed, unpaired t tests. **, p<0.01; ***, p<0.001. (c,d) Immunofluorescent staining of […]
Ki67 (proliferating cells, red) and E-Cadherin (cancer cells, green) in vehicle, NHWD-870 or BMS-986158 […]
treated H526 tumors from (Figure 4a). Shown are representative images of Ki67 positive cells (c) and […]
quantification of Ki67 positive cells (d). Scale bar is 30 μm. […]
independent images. p values were calculated using two-tailed, unpaired t tests. *, p<0.05; ***, p<0.001. […]

Cc1nnn(C)c1-c1cnc2c3ccc(C(C)(C)O)cc3n([C@H](c3ccccc3)C3CCOCC3)c2c1 [BMS-986158, reference compound]
Cellular activity in SCLCs (H211), alamarBlue ([1]; concentration 0.0169701): 0.078 and 7.88 | Cellular activity in SCLCs (H211), alamarBlue ([1]; concentration 0.0398488): 0.019 and 6.06 | Cellular activity in SCLCs (H211), alamarBlue ([1]; concentration 0.137272): 0.036 and 13.2 | Cellular activity in SCLCs (H211), alamarBlue ([1]; concentration 0.614394): 28.16 and 35.58 | Cellular activity in SCLCs (H211), alamarBlue ([1]; concentration 1.09152): 74.14 and 79.88 | Cellular activity in SCLCs (H211), alamarBlue ([1]; concentration 1.56864): 88.17 and 88.8 | Cellular activity in SCLCs (H211), alamarBlue ([1]; concentration 2.04576): 89.55 and 89.3 | Cellular activity in SCLCs (H211), alamarBlue ([1]; concentration 3): 86.89 and 89.73 | Cellular activity in SCLCs (H211), alamarBlue ([1]; concentration column prints 2.52288): 87.67 and 88.48 | IC50 ([1]; Homo sapiens, NCI-H211, 72 h, 72 h treatment, nM, read-out: IC50, cellular activity in NCI-H211 (alamarBlue)): 6.6 nM | Cellular activity in TNBCs (MDA-MB231), alamarBlue ([2]; concentration 0.15): 20.45 and 20.15 | Cellular activity in TNBCs (MDA-MB231), alamarBlue ([2]; concentration 0.6): 51.35 and 50.6 | Cellular activity in TNBCs (MDA-MB231), alamarBlue ([2]; concentration 1): 73.39 and 72.09 | Cellular activity in TNBCs (MDA-MB231), alamarBlue ([2]; concentration 1.5): 83.55 and 84.39 | Cellular activity in TNBCs (MDA-MB231), alamarBlue ([2]; concentration 2): 88.19 and 87.76 | Cellular activity in TNBCs (MDA-MB231), alamarBlue ([2]; concentration 2.5): 88.65 and 88.13 | Cellular activity in TNBCs (MDA-MB231), alamarBlue ([2]; concentration 3): 90.46 and 90.37 | Cellular activity in TNBCs (MDA-MB231), alamarBlue ([2]; concentration -0.3): 6.95 and 6.37 | Cellular activity in TNBCs (MDA-MB231), alamarBlue ([2]; concentration -0.9): 4.15 and 1.05 | IC50 ([2]; Homo sapiens, MDA-MB-231, 72 h, 72 h treatment, nM, read-out: IC50, cellular activity in MDA-MB231 (alamarBlue)): 5 nM | Body weight change (%) ([3]; 3mg/kg,QD, day 0 and day 20 or the last available data point, individual mice): -8.559% and -23.2889% and -19.9501% and -12.3957% | Mouse body weight changes (%) from Day 0 ([3]; Day 3, individual mice): -2.33% and 1.06% and -4.40% and 1.07% and 0.98% and -1.46% | Mouse body weight changes (%) from Day 0 ([3]; Day 7, individual mice): -0.51% and -2.62% and -8.04% and -1.69% and -7.56% and -3.13% | Mouse body weight changes (%) from Day 0 ([3]; Day 10, individual mice): 0.08% and -4.17% and 1.65% and -15.38% and -17.07% and -3.30% | Mouse body weight changes (%) from Day 0 ([3]; Day 14, individual mice): -5.26% and -0.68% and -6.36% and 0.13% and -8.04% and -3.28% | Mouse body weight changes (%) from Day 0 ([3]; Day 17, individual mice): -6.72% and -1.06% and -1.00% and -0.31% and -23.29% and -5.11% | Mouse body weight changes (%) from Day 0 ([3]; Day 20, individual mice): -12.40% and -8.56% and -1.00% and 1.16% and -19.95% | body weight loss ([3]; H526 SCLC tumor bearing mice, 3mg/kg QD): about 11% | Tumor volume (A375 human melanoma; day 0): 150.774 mm3 and 118.553 mm3 and 191.653 mm3 and 150.802 mm3 and 127.386 mm3 and 173.315 mm3 | Tumor volume (A375 human melanoma; day 4): 190.606 mm3 and 233.18 mm3 and 278.289 mm3 and 235.064 mm3 and 184.498 mm3 and 135.54 mm3 | Tumor volume (A375 human melanoma; day 7): 243.772 mm3 and 508.815 mm3 and 374.344 mm3 and 456.749 mm3 and 169.114 mm3 and 146.329 mm3 | Tumor volume (A375 human melanoma; day 11): 541.178 mm3 and 982.065 mm3 and 955.744 mm3 and 627.932 mm3 and 275.862 mm3 and 357.353 mm3 | Tumor volume (A375 human melanoma; day 14): 840.395 mm3 and 1426.45 mm3 and 1137.31 mm3 and 1074.5 mm3 and 373.109 mm3 and 473.708 mm3 | Tumor volume (A375 human melanoma; day 18): 1260.47 mm3 and 1267.54 mm3 and 1188.69 mm3 and 1129.05 mm3 and 402.127 mm3 and 719.097 mm3 | Tumor volume (A375 human melanoma; day 21): 1603.7 mm3 and 1878.69 mm3 and 1789.35 mm3 and 1645.42 mm3 and 683.962 mm3 and 956.808 mm3 | % of KI67 (Ki67 positive cells) (H526 tumors): 15% and 17% and 13% and 16% and 12%
